Laboratory results as given in patent US20210269451A1, “PYRIDINYL HETEROCYCLYL COMPOUNDS FOR THE TREATMENT OF AUTOIMMUNE DISEASE” (Hoffmann-La Roche Inc., priority 2018, published 2021).

Legend:
[1] = Human microsome stability assay; format: in vitro ADME; details: 1 μM test compound, 0.5 mg/mL liver microsomal protein, 37° C.
Experimental: Human microsome stability assay
The human microsomal stability assay is used for early assessment of metabolic stability of a test compound in human liver microsomes.
Human liver microsomes (Cat.NO.: 452117, Corning, USA;Cat.NO.:H2610, Xenotech, USA) were preincubated with test compound for 10 minutes at 37° C. in 100 mM potassium phosphate buffer, pH 7.4. The reactions were initiated by adding NADPH regenerating system. The final incubation mixtures contained 1 μM test compound, 0.5 mg/mL liver microsomal protein, 1 mM MgCl2, 1 mM NADP, 1 unit/mL isocitric dehydrogenase and 6 mM isocitric acid in 100 mM potassium phosphate buffer, pH 7.4. After incubation times of 0, 3, 6, 9, 15 and 30 minutes at 37° C., 300 μL of cold acetonitrile (including internal standard) was added to 100 μL incubation mixture to terminate the reaction. Following precipitation and centrifugation, the amount of compound remaining in the samples were determined by LC-MS/MS. Controls of no NADPH regenerating system at zero and 30 minutes were also prepared and analyzed.

hERG channel = biological target: T1, hERG channel (Homo sapiens, UniProt Q12809); assay: hERG channel inhibition assay (patch-clamp, CHOhERG cells); format: cell-based; details: safety ratio;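 for hERG IC20/TLR7 IC50: ratio above 30 indicates an adequate safety window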;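 for hERG IC20/TLR8 IC50: ratio above 30 indicates an adequate safety window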
T1 construct: expressed in transfected cells; host or cells: CHO (Chinese hamster ovary), CHOhERG
T1 sequence (Q12809 whole entry): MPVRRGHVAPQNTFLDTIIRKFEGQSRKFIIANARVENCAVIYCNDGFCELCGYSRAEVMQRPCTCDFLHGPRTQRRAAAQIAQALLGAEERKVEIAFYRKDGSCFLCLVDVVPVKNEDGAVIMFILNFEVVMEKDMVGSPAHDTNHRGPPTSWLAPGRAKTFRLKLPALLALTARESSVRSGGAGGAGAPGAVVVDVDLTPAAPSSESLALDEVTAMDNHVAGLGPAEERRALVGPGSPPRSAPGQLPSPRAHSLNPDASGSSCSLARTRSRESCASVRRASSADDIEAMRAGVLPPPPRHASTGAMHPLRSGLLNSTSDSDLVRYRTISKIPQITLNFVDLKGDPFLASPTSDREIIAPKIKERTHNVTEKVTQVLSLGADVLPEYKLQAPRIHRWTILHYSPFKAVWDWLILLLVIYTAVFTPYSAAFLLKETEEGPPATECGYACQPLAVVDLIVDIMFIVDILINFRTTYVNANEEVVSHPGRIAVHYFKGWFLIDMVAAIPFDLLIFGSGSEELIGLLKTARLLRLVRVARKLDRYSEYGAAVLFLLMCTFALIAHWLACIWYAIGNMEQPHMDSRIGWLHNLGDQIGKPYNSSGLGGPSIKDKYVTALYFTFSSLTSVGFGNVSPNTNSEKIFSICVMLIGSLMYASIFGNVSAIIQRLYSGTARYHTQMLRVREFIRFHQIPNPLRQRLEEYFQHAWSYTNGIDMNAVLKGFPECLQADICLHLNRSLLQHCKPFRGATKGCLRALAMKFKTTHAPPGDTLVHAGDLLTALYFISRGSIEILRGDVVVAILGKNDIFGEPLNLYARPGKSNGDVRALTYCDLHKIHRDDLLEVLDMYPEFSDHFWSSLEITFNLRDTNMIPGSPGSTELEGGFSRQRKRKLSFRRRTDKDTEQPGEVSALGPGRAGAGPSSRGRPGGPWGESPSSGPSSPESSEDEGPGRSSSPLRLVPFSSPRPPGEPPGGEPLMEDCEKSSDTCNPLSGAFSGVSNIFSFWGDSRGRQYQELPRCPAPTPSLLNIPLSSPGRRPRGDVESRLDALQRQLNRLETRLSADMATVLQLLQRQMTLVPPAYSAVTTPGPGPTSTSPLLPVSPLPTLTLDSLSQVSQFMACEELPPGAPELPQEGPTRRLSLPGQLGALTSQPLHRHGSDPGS
Experimental: hERG channel inhibition assay:
The hERG K^+ channels were cloned in humans and stably expressed in a CHO (Chinese hamster ovary) cell line. CHOhERG cells were used for patch-clamp (voltage-clamp, whole-cell) experiments. Cells were stimulated by a voltage pattern to activate hERG channels and conduct IKhERG currents (rapid delayed outward rectifier potassium current of the hERG channel). After the cells were stabilized for a few minutes, the amplitude and kinetics of IKhERG were recorded at a stimulation frequency of 0.1 Hz (6 bpm). Thereafter, the test compound was added to the preparation at increasing concentrations. For each concentration, an attempt was made to reach a steady-state effect, usually, this was achieved within 3-10 min at which time the next highest concentration was applied. The amplitude and kinetics of IKhERG are recorded in each concentration of the drug which were compared to the control values (taken as 100%). (references: Redfern W S, Carlsson L, Davis A S, Lynch W G, MacKenzie I, Palethorpe S, Siegl P K, Strang I, Sullivan A T, Wallis R, Camm A J, Hammond T G. 2003; Relationships between preclinical cardiac electrophysiology, clinical QT interval prolongation and torsade de pointes for a broad range of drugs: evidence for a provisional safety margin in drug development. Cardiovasc. Res. 58:32-45, Sanguinetti M C, Tristani-Firouzi M. 2006; hERG potassium channels and cardiac arrhythmia. Nature 440:463-469, Webster R, Leishman D, Walker D. 2002; Towards a drug concentration effect relationship for QT prolongation and torsades de pointes. Curr. Opin. Drug Discov. Devel. 5:116-26).

hTLR9 = biological target: T2, hTLR9 (Homo sapiens, UniProt Q9NR96); set-up: host or cells: HEK; details: disclosed in US20150105370; read-out: HEK/hTLR9 IC50; cited from earlier work
T2 sequence (Q9NR96 26-1032): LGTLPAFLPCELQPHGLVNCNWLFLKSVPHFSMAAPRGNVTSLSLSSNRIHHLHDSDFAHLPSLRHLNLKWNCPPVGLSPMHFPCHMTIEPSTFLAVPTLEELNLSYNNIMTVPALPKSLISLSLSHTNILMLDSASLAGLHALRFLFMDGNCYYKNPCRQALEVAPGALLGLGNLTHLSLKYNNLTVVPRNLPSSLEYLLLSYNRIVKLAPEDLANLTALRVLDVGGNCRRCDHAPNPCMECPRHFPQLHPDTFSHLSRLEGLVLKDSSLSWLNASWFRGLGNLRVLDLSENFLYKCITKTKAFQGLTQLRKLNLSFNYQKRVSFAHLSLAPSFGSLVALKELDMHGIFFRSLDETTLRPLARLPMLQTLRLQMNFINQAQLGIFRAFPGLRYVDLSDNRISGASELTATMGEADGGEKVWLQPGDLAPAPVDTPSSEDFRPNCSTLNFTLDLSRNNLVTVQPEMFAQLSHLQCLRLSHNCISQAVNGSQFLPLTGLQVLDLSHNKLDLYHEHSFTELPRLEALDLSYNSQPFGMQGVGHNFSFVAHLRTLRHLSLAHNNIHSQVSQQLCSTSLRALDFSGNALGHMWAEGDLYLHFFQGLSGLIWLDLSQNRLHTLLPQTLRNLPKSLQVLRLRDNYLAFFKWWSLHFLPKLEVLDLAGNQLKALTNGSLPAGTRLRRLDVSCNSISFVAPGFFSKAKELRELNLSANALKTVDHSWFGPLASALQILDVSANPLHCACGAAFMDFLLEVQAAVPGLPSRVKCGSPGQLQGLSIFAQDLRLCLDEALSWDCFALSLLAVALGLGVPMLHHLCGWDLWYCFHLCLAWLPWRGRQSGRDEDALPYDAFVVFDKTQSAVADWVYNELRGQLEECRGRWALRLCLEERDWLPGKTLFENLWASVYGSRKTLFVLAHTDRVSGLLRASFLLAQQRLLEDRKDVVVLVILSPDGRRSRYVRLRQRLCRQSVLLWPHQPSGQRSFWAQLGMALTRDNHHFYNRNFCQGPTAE

CYP2D6 = biological target: T3, CYP2D6 (Homo sapiens, UniProt P10635); assay: CYP inhibition assay in human liver microsome; format: in vitro ADME; details: human liver microsomes, probe dextromethorphan, dextromethorphan substrate, percentage inhibition <0: not or weak inhibitor, read-out: CYP 2D6 inhibition %@10 μM
T3 construct: tissue BD-Gentest 452117; host or cells: human liver microsomes
T3 sequence (P10635 whole entry): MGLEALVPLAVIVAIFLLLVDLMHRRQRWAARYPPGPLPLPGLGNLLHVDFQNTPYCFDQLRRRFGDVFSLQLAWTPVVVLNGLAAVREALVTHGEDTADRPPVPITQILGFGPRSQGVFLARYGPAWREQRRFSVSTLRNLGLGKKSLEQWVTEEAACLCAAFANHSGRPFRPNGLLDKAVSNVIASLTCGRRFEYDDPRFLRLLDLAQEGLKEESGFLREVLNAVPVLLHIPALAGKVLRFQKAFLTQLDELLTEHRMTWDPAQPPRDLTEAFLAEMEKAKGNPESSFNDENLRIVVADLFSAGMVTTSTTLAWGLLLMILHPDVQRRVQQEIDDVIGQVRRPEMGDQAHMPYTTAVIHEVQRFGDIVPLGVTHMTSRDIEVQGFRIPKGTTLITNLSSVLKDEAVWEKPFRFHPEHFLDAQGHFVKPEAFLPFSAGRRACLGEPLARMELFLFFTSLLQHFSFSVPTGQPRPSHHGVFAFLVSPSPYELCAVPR
Experimental: The compounds would be desirable to have minimal DDI liabilities. Therefore, the effects of compounds of formula (I) or (Ia) on CYP2D6 are determined.
This is a high throughput screening assay used for assessment of reversible inhibition of CYP2D6 activity of test compounds in human liver microsome (HLM) in early discovery stage.
10 mM DMSO stock solutions of test compounds were diluted in DMSO to generate 2 mM intermediate stock solution. 250 nL of intermediate stock solution were transferred in duplicate into 3 separate 384 well microtitre plates (assay-ready plates). A mixture of HLM and each substrate was made up. 45 μL of HLM substrate mix was then transferred to each well of an assay ready plate and mixed. The negative (solvent) and positive control (standard inhibitor for CYP 2D6) were included in each assay ready plate. The assay ready plate was warmed to 37° C. in an incubator over 10 minutes. 5 μL pre-warmed NADPH regenerating system was added to each incubation well to start the reaction. Final incubation volume was 50 μL. The assay plate then was placed back in the 37° C. incubator. After 10 minutes incubation, incubates were quenched by addition of 50 μL 100% acetonitrile containing internal standards (20 ng/mL D3-Dextrorphan). The supernatants were collected for RapidFire/MS/MS analysis.
RapidFire online solid phase extraction/sample injection system (Agilent) coupled with API4000 triple quadrupole mass spectrometer (AB Sciex) were used for sample analysis. The mobile phase composed of acetonitrile and water supplemented with 0.1% formic acid. A C4 solid phase extraction cartridge is used for sample separation. MS detection is achieved in positive ion MRM mode.
Data analysis Peak areas for substrate, metabolite and internal standard are determined using the RapidFire integrator software (version 3.6.12009.12296). Peak area ratios (PAR) of metabolite and internal standard (stable-labelled metabolite) are then calculated. The measurement window for each experiment is then defined:
PAR (0% activity), average PAR for all incubations containing concentrated inhibitor; Par (100% activity), average PAR for all incubations containing no inhibitor (DMSO controls);
% Activity (test inhibitor)=
=[PAR(test inhibitor)-PAR(0% activity)]/[PAR(100% activity)-PAR(0% activity)];
% Inhibition (test inhibitor)=100-% Activity (test inhibitor).

Compound | Clearance of Human microsome [1] [mL/min/kg] | hERG IC20/TLR7 IC50 (hERG channel) | hERG IC20/TLR9 IC50 (hERG channel) | IC50 (hTLR9) [µM] | also measured
Cc1cc(N2CC[C@H](NC[C@H]3CN(c4ccc(C#N)c5ncccc45)C[C@@H](C)O3)[C@@H](O)C2)cc(CO)n1 [Example 26] | 7.72 |  |  |  | 
C[C@@H]1CN(c2ccc(C#N)c3ncccc23)C[C@H](CN2CCN(c3ccccc3)CC2)O1 [ER-887258, reference compound] |  | 8.1 | 0.3 | > 2 | 
Cc1cc(N2C[C@@H](O)[C@H](NC[C@H]3CN(c4ccc(C#N)c5ncccc45)C[C@@H](C)O3)C2)cc(CO)n1 [Example 31] | 7.61 |  |  |  | 
C[C@@H]1CN(c2ccc(C#N)c3ncccc23)C[C@H](CN2CCN(c3ccncc3)CC2)O1 [ER-888286, reference compound] |  | 0.3 | 0.2 | > 2 | 
C[C@@H]1CN(c2ccc(C#N)c3ncccc23)C[C@H](CN2CCN(c3ccccn3)CC2)O1 [ER-888285, reference compound] |  | 8.4 | 0.5 | > 2 | 
C[C@@H]1CN(c2ccc(C#N)c3ncccc23)C[C@H](CN2CC[C@@H](NC(=O)c3ccccc3)C2)O1 [ER-894544] |  |  |  | > 6.2 | 
C[C@@H]1CN(c2ccc(C#N)c3ncccc23)C[C@H](CN2CC(NS(=O)(=O)c3ccc(F)cc3)C2)O1 [ER-894155] |  |  |  | > 10 | 
COc1ccc(N2CCN(C[C@H]3CN(c4ccc(C#N)c5ncccc45)C[C@@H](C)O3)CC2)cc1 [Example R1, 5-[(2S,6R)-2-[[4-(4-methoxyphenyl)piperazin-1-yl]methyl]-6-methyl-morpholin-4-yl]quinoline-8-carbonitrile, reference compound] | 10.84 | 9.3 | 0.1 |  | hERG IC20/TLR8 IC50 (hERG channel): 6.2
Cc1cc(N2CCN(C[C@H]3CN(c4ccc(C#N)n5nccc45)C[C@@H](C)O3)C(Cc3ccccc3)C2)cc(C)n1 (some centres unmarked) [Example 39] |  |  |  |  | inhibition at 10 min, 10 μM (CYP2D6): 7.5%
C[C@@H]1CN(c2ccc(C#N)c3ncccc23)C[C@H](CN2CCN(c3ccc(Cl)cc3)CC2)O1 [Example R2, 5-[(2S,6R)-2-[[4-(4-chlorophenyl)piperazin-1-yl]methyl]-6-methyl-morpholin-4-yl]quinoline-8-carbonitrile, reference compound] |  | 1.3 | 0.0 |  | hERG IC20/TLR8 IC50 (hERG channel): 0.8
Cc1nn(C)cc1S(=O)(=O)NC1CCN(C[C@H]2CN(c3ccc(C#N)c4ncccc34)C[C@@H](C)O2)CC1 [ER-894160] |  |  |  | > 10 | 
Cc1cc(N2CC[C@@H](O)[C@H](NC[C@H]3CN(c4ccc(C#N)c5ncccc45)C[C@@H](C)O3)C2)cc(CO)n1 [Example 27] | 7.67 |  |  |  | 
